Source: ChEMBL document CHEMBL6127106, “Novel Far-Red Fluorescent 1,4-Dihydropyridines for L-Type Calcium Channel Imaging” (J Med Chem, 2024)
pIC50: −log10 of the molar value.

Legend:
[1] = biological target: T1, Voltage-dependent L-type calcium channel subunit alpha-1C (Homo sapiens, UniProt Q13936); experiment: Antagonist activity at Cav1.2 (unknown origin) stably expressed in HEK293 cells at 10 uM assessed as inhibition of LTCC current by Whole cell patch clamp assay relative to control; type: cell-based; details: read-out: Activity
[2] = biological target: T1, Voltage-dependent L-type calcium channel subunit alpha-1C; experiment: Antagonist activity at Cav1.2 (unknown origin) stably expressed in HEK293 cells assessed as inhibition of LTCC current by Whole cell patch clamp assay; type: cell-based; details: for Activity: human, hek293
[3] = biological target: T2, Voltage-gated L-type calcium channel (Homo sapiens, UniProt Q13936+Q13698+Q01668+O60840); experiment: Antagonist activity at L-type calcium channel in human mesoangioblast-derived myotube assessed as reduction in KCL-mediated depolarization of cytosolic (Ca2+) increase at 10 uM incubated for 25 mins in presence of KCl by live-cell imaging based analysis
[4] = biological target: T1, Voltage-dependent L-type calcium channel subunit alpha-1C; experiment: Binding affinity to GFP-tagged Cav1.2alpha 1C (unknown orign) transfected with human HeLa cells assessed as increase in fluorescence intensity in cytoplasm at 25 to 100 nM in presence of nifedipine by fluorescence based confocal microscopy analysis; type: cell-based; details: dose 25-100 nM
[5] = biological target: T1, Voltage-dependent L-type calcium channel subunit alpha-1C; experiment: Binding affinity to GFP-tagged Cav1.2alpha 1C (unknown orign) transfected with human HeLa cells assessed as increase in fluorescence intensity at 25 to 100 nM in presence of nifedipine by fluorescence based confocal microscopy analysis; type: cell-based; details: dose 25-100 nM
[6] = biological target: T2, Voltage-gated L-type calcium channel; experiment: Antagonist activity at L-type calcium channel in Ca1520-loade human SH-SY5Y cells assessed as inhibition of KCL-mediated depolarization of cytosolic (Ca2+) increase incubated for 5 mins in presence of KCl by live-cell imaging based analysis
[7] = biological target: T1, Voltage-dependent L-type calcium channel subunit alpha-1C; experiment: Binding affinity to GFP-tagged Cav1.2alpha 1C (unknown orign) transfected with human HeLa cells assessed as increase in fluorescence intensity at 50 nM incubated for 5 mins by fluorescence based confocal microscopy analysis; type: cell-based; details: 0.05 µM
[8] = biological target: T2, Voltage-gated L-type calcium channel; experiment: Binding affinity to LTCC in endogenously expressing human SH-SY5Y cells assessed as increase in fluorescence intensity at 50 to 100 nM in presence of nifedipine by fluorescence based confocal microscopy analysis; type: cell-based; details: dose 50-100 nM

T1 sequence (Q13936 whole entry): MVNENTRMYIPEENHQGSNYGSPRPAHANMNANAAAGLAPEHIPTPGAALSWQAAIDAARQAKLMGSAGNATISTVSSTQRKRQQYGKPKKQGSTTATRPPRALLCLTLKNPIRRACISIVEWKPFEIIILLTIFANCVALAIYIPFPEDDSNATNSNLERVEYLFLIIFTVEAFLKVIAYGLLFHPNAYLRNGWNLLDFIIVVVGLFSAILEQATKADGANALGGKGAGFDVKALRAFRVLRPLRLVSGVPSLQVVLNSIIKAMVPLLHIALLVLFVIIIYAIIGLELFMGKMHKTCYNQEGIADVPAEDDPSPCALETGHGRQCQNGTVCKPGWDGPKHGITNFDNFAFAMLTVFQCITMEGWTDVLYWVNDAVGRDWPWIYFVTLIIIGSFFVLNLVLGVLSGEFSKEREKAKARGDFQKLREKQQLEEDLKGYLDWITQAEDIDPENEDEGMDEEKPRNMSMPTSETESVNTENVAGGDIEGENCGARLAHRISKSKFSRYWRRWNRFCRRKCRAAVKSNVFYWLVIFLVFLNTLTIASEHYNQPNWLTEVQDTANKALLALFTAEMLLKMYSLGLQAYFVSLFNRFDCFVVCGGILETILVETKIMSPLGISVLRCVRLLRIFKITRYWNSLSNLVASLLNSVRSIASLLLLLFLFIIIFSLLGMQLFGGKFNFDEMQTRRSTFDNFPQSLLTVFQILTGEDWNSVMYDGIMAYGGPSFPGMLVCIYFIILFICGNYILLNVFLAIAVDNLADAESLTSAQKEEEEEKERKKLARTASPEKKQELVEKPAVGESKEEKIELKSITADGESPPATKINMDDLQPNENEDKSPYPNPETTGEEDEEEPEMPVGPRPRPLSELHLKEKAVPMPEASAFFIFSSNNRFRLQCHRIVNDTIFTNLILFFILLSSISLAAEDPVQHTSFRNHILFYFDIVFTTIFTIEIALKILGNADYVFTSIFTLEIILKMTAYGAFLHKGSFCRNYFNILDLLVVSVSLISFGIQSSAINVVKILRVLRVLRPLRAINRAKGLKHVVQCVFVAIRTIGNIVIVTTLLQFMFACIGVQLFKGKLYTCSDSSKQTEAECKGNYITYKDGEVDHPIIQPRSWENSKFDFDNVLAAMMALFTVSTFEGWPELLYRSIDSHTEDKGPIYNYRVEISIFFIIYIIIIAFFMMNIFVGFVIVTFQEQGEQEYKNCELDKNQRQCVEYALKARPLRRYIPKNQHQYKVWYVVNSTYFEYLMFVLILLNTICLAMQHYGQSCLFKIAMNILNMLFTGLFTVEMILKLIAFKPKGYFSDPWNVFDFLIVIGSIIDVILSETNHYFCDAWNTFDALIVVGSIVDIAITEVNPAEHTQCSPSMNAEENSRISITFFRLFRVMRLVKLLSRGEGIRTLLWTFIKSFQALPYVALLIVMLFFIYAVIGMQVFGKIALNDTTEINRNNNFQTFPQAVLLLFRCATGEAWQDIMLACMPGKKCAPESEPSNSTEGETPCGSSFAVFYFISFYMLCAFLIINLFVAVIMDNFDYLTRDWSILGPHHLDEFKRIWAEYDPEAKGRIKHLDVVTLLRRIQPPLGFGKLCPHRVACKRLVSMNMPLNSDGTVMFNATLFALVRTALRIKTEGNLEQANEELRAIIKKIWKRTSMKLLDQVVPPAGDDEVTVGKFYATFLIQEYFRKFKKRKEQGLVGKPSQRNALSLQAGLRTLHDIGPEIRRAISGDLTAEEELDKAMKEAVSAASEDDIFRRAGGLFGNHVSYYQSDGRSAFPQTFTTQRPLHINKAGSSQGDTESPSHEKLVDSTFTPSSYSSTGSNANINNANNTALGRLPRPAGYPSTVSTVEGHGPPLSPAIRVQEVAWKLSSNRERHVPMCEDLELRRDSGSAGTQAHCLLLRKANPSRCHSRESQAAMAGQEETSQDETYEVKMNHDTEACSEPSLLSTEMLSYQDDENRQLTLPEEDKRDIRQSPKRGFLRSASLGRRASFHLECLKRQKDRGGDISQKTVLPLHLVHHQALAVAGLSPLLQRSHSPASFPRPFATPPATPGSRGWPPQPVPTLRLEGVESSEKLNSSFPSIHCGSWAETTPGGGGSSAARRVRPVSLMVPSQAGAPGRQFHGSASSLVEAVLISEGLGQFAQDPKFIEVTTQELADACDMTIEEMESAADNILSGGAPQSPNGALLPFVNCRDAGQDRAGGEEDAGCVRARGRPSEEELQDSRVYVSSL

| Activity [3] | Compound | inhibition at 10 µM [1] [%] | pIC50 [2] | other results |
| --- | --- | --- | --- | --- |
| Active | COC(=O)C1=C(C)NC(C)=C(C(=O)OCCCCCCCCNC(=O)CCCCC[N+]2=C(/C=C/C=C/C=C3/N(C)c4ccccc4C3(C)C)C(C)(C)c3ccccc32)C1c1cccc(Cl)c1Cl (stereo unspecified) | 46 | – | Activity [2]: Not Active |
| Active | COC(=O)C1=C(C)NC(C)=C(C(=O)OCCOCCNC(=O)CCCCC[N+]2=C(/C=C/C=C/C=C3/N(C)c4ccccc4C3(C)C)C(C)(C)c3ccccc32)C1c1ccccc1[N+](=O)[O-] (stereo unspecified) | 83 | 5.66 | – |
| Active | COC(=O)C1=C(C)NC(C)=C(C(=O)OCCOCCOCCNC(=O)CCCCC[N+]2=C(/C=C/C=C/C=C3\N(C)c4ccccc4C3(C)C)C(C)(C)c3ccccc32)C1c1cccc(Cl)c1Cl (stereo unspecified) | 77 | 5.46 | – |
| Active | COC(=O)C1=C(C)NC(C)=C(C(=O)OCCCCCCCCNC(=O)CCCCC[N+]2=C(/C=C/C=C/C=C3/N(C)c4ccccc4C3(C)C)C(C)(C)c3ccccc32)C1c1ccccc1[N+](=O)[O-] (stereo unspecified) | 87 | 5.72 | – |
| Active | COC(=O)C1=C(C)NC(C)=C(C(=O)OCCOCCNC(=O)CCCCC[N+]2=C(/C=C/C=C/C=C3/N(C)c4ccccc4C3(C)C)C(C)(C)c3ccccc32)C1c1ccccc1/C=C/C(=O)OC(C)(C)C (stereo unspecified) | 97 | 5.97 | – |

Further lines, the compound ahead of its results:

| Compound | Activity [3] | inhibition at 10 µM [1] [%] | pIC50 [2] | other results |
| --- | --- | --- | --- | --- |
| COC(=O)C1=C(C)NC(C)=C(C(=O)OCCOCCNC(=O)CCCCC[N+]2=C(/C=C/C=C/C=C3N(C)c4ccccc4C3(C)C)C(C)(C)c3ccccc32)[C@@H]1c1cccc(Cl)c1Cl | Active | 70 | 5.19 | – |
| COC(=O)C1=C(C)NC(C)=C(C(=O)OCCCCCCNC(=O)CCCCC[N+]2=C(/C=C/C=C/C=C3/N(C)c4ccccc4C3(C)C)C(C)(C)c3ccccc32)C1c1ccccc1[N+](=O)[O-] (stereo unspecified) | Active | 52 | 4.90 | – |
| COC(=O)C1=C(C)NC(C)=C(C(=O)OCCNC(=O)CCCCC[N+]2=C(/C=C/C=C/C=C3/N(C)c4ccccc4C3(C)C)C(C)(C)c3ccccc32)C1c1cccc(Cl)c1Cl (stereo unspecified) | Active | 72 | 5.37 | – |
| COC(=O)C1=C(C)NC(C)=C(C(=O)OCCCCCCNC(=O)CCCCC[N+]2=C(/C=C/C=C/C=C3/N(C)c4ccccc4C3(C)C)C(C)(C)c3ccccc32)C1c1cccc(Cl)c1Cl (stereo unspecified) | Active | 50 | 4.90 | – |
| COC(=O)C1=C(C)NC(C)=C(C(=O)OCCOCCNC(=O)CCCCC[N+]2=C(/C=C/C=C/C=C3\N(C)c4ccccc4C3(C)C)C(C)(C)c3ccccc32)[C@H]1c1cccc(Cl)c1Cl | Active | 94 | 6.19 | Activity [4]: Not Active; Activity [5]: Not Active; IC50 [6]: 1.08 µM; Activity ([6]; human, 5 min, dose 0.1-10000 nM): Dose-Dependent Effect; Activity [7]: Active; Activity [8]: Not Active |
| COC(=O)C1=C(C)NC(C)=C(C(=O)OCCOCCNC(=O)CCCCC[N+]2=C(/C=C/C=C/C=C3/N(C)c4ccccc4C3(C)C)C(C)(C)c3ccccc32)C1c1cccc(Cl)c1Cl (stereo unspecified) | Active | 62 | 5.13 | – |
| COC(=O)C1=C(C)NC(C)=C(C(=O)OCCCCCCNC(=O)CCCCCNC(=O)Oc2ccc(/C=C/C3=[N+]4C(=Cc5ccc(-c6cccs6)n5[B-]4(F)F)C=C3)cc2)C1c1cccc(Cl)c1Cl (stereo unspecified) | Not Active | 24 | – | Activity [2]: Not Active |
| COC(=O)C1=C(C)NC(C)=C(C(=O)OCCOCCNC(=O)CCCCC[N+]2=C(/C=C/C=C/C=C3/N(C)c4ccccc4C3(C)C)C(C)(C)c3ccccc32)C1c1ccccc1OS(=O)(=O)F (stereo unspecified) | Active | 88 | 5.82 | – |
| COC(=O)C1=C(C)NC(C)=C(C(=O)OC)C1c1ccccc1[N+](=O)[O-] [NIFEDIPINE] | – | 102 | – | – |
